# Patent US20250177429A1, “ORALLY ACTIVE PRODRUG OF GEMCITABINE” (Laevoroc Chemotherapy AG, priority 2022, published 2025)
# Where two headings read alike, the source gives them in different places.
# Key:
# [1] = Solubility of the mono-hydrochloride salt in water and buffer solutions; format: physicochemical; conditions: thermodynamic from solid; for solubility at 15 min: solid added until saturation
# Method: In each case, a first estimation was performed by adding small amounts of solvents until dissolution of the solid (50 mg), followed by a second estimation performed through the addition of small amounts of solid to a determined quantity of solvent until saturation was reached (suspension observed after 15 min). This second estimation was undertaken twice for each solution.
# [2] = Powder stability of the API on storage; format: physicochemical; conditions: powder form of the API, FIG. 3
# [3] = Stability in aqueous media at RT; format: physicochemical
# Text: Regarding to the MS profile, most of the observed impurities concern a valproic moiety cleavage and/or valine moiety migration/cleavage. […] In agreement with earlier observation, a lower acidity medium will likely result in a higher ratio of valine hydrolysis.
# CDA = CDA (Homo sapiens, UniProt P32320); conditions: Bender et al. 2009; cited from earlier work
# Japanese patients = conditions: phase I, 2013; cited from earlier work
# [4] = result of first pass metabolism; Shipley et al. 1992; cited from earlier work
# mice = conditions: cited from earlier work
# Sequence of CDA (P32320 whole entry, species assumed): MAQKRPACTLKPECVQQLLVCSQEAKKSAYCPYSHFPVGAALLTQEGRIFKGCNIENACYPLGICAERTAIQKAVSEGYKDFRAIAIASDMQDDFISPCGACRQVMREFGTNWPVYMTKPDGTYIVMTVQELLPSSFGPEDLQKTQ
compound,measurement,setting,value
"CCCC(CCC)C(=O)Nc1ccn([C@@H]2O[C@H](CO)[C@@H](OC(=O)[C@@H](N)C(C)C)C2(F)F)c(=O)n1.Cl [LR-06-B.HCl, (2R,3R,5R)-4,4-difluoro-2-(hydroxymethyl)-5-(2-oxo-4-(2-propylpentanamido)-1,2-dihydropyrimidin-1-yl)oxolan-3-yl (2S)-2-amino-3-methylbutanoate hydrochloride]",solubility,"[1]; buffer solution pH 1.2, pH 1.2, simulated gastric fluid, Buffer pH 1.2, read-out: Mean solubility",211 mg/mL
same,solubility at 15 min,"[1]; buffer solution pH 1.2, pH 1.2, simulated gastric fluid, Buffer pH 1.2, read-out: Solubility, Estimation 2a",217 mg/mL
same,solubility at 15 min,"[1]; buffer solution pH 1.2, pH 1.2, simulated gastric fluid, Buffer pH 1.2, read-out: Solubility, Estimation 2b",208 mg/mL
same,solubility,"[1]; buffer solution pH 1.2, pH 1.2, simulated gastric fluid, Buffer pH 1.2, solvent added until dissolution of 50 mg solid, read-out: Solubility, Estimation 1",207 mg/mL
same,solubility,"[1]; buffer solution pH 4.5, pH 4.5, aqueous buffer, Buffer pH 4.5, read-out: Mean solubility",227 mg/mL
same,solubility at 15 min,"[1]; buffer solution pH 4.5, pH 4.5, aqueous buffer, Buffer pH 4.5, read-out: Solubility, Estimation 2a",236 mg/mL
same,solubility at 15 min,"[1]; buffer solution pH 4.5, pH 4.5, aqueous buffer, Buffer pH 4.5, read-out: Solubility, Estimation 2b",233 mg/mL
same,solubility,"[1]; buffer solution pH 4.5, pH 4.5, aqueous buffer, Buffer pH 4.5, solvent added until dissolution of 50 mg solid, read-out: Solubility, Estimation 1",213 mg/mL
same,solubility,"[1]; buffer solution pH 6.8, pH 6.8, aqueous buffer, Buffer pH 6.8, read-out: Mean solubility",275 mg/mL
same,solubility at 15 min,"[1]; buffer solution pH 6.8, pH 6.8, aqueous buffer, Buffer pH 6.8, read-out: Solubility, Estimation 2a",302 mg/mL
same,solubility at 15 min,"[1]; buffer solution pH 6.8, pH 6.8, aqueous buffer, Buffer pH 6.8, read-out: Solubility, Estimation 2b",280 mg/mL
same,solubility,"[1]; buffer solution pH 6.8, pH 6.8, aqueous buffer, Buffer pH 6.8, solvent added until dissolution of 50 mg solid, read-out: Solubility, Estimation 1",241 mg/mL
same,solubility,"[1]; water, Water, read-out: Mean solubility",394 mg/mL
same,solubility at 15 min,"[1]; water, Water, read-out: Solubility, Estimation 2a",463 mg/mL
same,solubility at 15 min,"[1]; water, Water, read-out: Solubility, Estimation 2b",462 mg/mL
same,solubility,"[1]; water, Water, solvent added until dissolution of 50 mg solid, read-out: Solubility, Estimation 1",257 mg/mL
same,"Powder stability, change on storage",[2]; 3 months' storage at 2-4° C.,no significant change
same,"Powder stability, change on storage",[2]; 3 months' storage at RT,no significant change
same,Stability in aqueous media at RT,"[3]; Water, 30 Min",97.06%
same,Stability in aqueous media at RT,"[3]; Water, 1 hour",96.98%
same,Stability in aqueous media at RT,"[3]; Water, 2 hours",96.89%
same,Stability in aqueous media at RT,"[3]; Water, 4 hours",96.62%
same,Stability in aqueous media at RT,"[3]; Water, 6 hours",96.42%
same,Stability in aqueous media at RT,"[3]; Water, 1 day",94.45%
same,Stability in aqueous media at RT,"[3]; Water, 2 days",91.07%
same,Stability in aqueous media at RT,"[3]; Water, 7 days",77.12%
same,Stability in aqueous media at RT,"[3]; Water, time 0 (API Powder)",97.21%
same,Degradation of the API in aqueous media,"[3]; aqueous media, RT, FIG. 4",significant short-term degradation
same,Stability in aqueous media at RT,"[3]; pH 1.2, 30 Min",97.03%
same,Stability in aqueous media at RT,"[3]; pH 1.2, 1 hour",96.83%
same,Stability in aqueous media at RT,"[3]; pH 1.2, 2 hours",96.42%
same,Stability in aqueous media at RT,"[3]; pH 1.2, 4 hours",95.71%
same,Stability in aqueous media at RT,"[3]; pH 1.2, 6 hours",95.14%
same,Stability in aqueous media at RT,"[3]; pH 1.2, 1 day",88.40%
same,Stability in aqueous media at RT,"[3]; pH 1.2, 2 days",80.05%
same,Stability in aqueous media at RT,"[3]; pH 1.2, 7 days",30.60%
same,Stability in aqueous media at RT,"[3]; pH 1.2, time 0 (API Powder)",97.21%
same,Stability in aqueous media at RT,"[3]; pH 4.5, 30 Min",96.45%
same,Stability in aqueous media at RT,"[3]; pH 4.5, 1 hour",96.35%
same,Stability in aqueous media at RT,"[3]; pH 4.5, 2 hours",96.24%
same,Stability in aqueous media at RT,"[3]; pH 4.5, 4 hours",95.46%
same,Stability in aqueous media at RT,"[3]; pH 4.5, 6 hours",94.87%
same,Stability in aqueous media at RT,"[3]; pH 4.5, 1 day",90.73%
same,Stability in aqueous media at RT,"[3]; pH 4.5, 2 days",84.24%
same,Stability in aqueous media at RT,"[3]; pH 4.5, 7 days",57.17%
same,Stability in aqueous media at RT,"[3]; pH 4.5, time 0 (API Powder)",97.21%
same,Stability in aqueous media at RT,"[3]; pH 6.8, 30 Min",91.08%
same,Stability in aqueous media at RT,"[3]; pH 6.8, 1 hour",87.32%
same,Stability in aqueous media at RT,"[3]; pH 6.8, 2 hours",80.70%
same,Stability in aqueous media at RT,"[3]; pH 6.8, 4 hours",65.65%
same,Stability in aqueous media at RT,"[3]; pH 6.8, 6 hours",57.40%
same,Stability in aqueous media at RT,"[3]; pH 6.8, 1 day",9.48%
same,Stability in aqueous media at RT,"[3]; pH 6.8, 2 days",7.48%
same,Stability in aqueous media at RT,"[3]; pH 6.8, 7 days",1.77%
same,Stability in aqueous media at RT,"[3]; pH 6.8, time 0 (API Powder)",97.21%
CCCC(CCC)C(=O)Nc1ccn([C@@H]2O[C@H](CO)[C@@H](O)C2(F)F)c(=O)n1 [LY2334737],Degradation by CDA,CDA,significantly less prone to degradation by CDA
same,Hepatic toxicity,Japanese patients,unexpected hepatic toxicities
"Nc1ccn([C@@H]2O[C@H](CO)[C@@H](O)C2(F)F)c(=O)n1 [gemcitabine, Gemcitabine]",Oral bioavailability,[4],poor
same,Death or gastrointestinal toxicity after intravenous dosing,mice; comparable exposures via intravenous dosing,did not result in death or gastrointestinal toxicity
same,Intestinal lesions after single oral dose,"mice; single oral (gavage) dose of 167, 333, or 500 mg/kg, Horton et al. 2004",moderate-to-marked loss of mucosal epithelium (atrophic enteropathy)
